Test results taken from paper PMC4855831, “Cloning, expression and characterization of a β-D-xylosidase from Lactobacillus rossiae DSM 15814^T” (Microbial Cell Factories, 2016).

Target: T1, XylA (β-D-xylosidase, LROS_1108) (Furfurilactobacillus rossiae, UniProt A0A0R1REJ8)
T1 construct: gene FD35_GL000933; host Lactococcus lactis subsp. cremoris NZ9000; crude cell extract; from primers N-terminus MKIQNPVL, C-terminus KELPETK; EC 3.2.1.37
Assay: p-nitrophenol release at […] nm, XylA-containing crude cell extract
Format: biochemical
Details: 5 mM pNPX, 50 mM phosphate buffer pH 5.7, 37.5 °C, 10 min

T1 sequence (A0A0R1REJ8 entry or part of it): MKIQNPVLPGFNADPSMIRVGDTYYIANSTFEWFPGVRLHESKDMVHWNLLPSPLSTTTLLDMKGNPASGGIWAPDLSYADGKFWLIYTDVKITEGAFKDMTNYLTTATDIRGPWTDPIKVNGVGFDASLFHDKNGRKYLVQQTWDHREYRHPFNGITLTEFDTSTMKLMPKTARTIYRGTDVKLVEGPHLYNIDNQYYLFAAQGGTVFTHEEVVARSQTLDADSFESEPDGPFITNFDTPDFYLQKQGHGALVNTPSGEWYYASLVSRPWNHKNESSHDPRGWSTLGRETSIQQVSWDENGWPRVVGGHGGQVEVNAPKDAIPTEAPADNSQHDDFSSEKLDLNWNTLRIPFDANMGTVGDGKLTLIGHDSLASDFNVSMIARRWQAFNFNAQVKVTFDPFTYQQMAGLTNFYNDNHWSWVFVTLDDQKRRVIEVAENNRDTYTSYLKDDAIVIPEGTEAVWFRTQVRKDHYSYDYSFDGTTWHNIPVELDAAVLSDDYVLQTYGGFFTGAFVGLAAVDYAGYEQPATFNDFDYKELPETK

## O=[N+]([O-])c1ccc(O[C@@H]2OC[C@@H](O)[C@H](O)[C@H]2O)cc1 [p-nitrophenyl-β-D-xylopyranoside]
  p-nitrophenol release at 410 nm, XylA-containing crude cell extract: amount of p-nitrophenol (pNP) released from p-nitrophenyl-β-D-xylopyranoside (pNPX) substrate
